Data on 8 molecules can be found in patent US20040121307A1, “Early detection of cellular differentiation using optophoresis” (Genoptix, Inc, priority 2002, published 2004).

In series [1] the test system is U937 cells. Briefly: Experiment 3: PMA inhibition by bisindolymaleimide, escape velocity. It counts as cell-based. The conditions noted are these: for average escape velocity / escape velocity, Ave.: four hours; for escape velocity, Ave.: no PMA. The text has this: The objective of this experiment was to test the effect of bisindolymaleimide on cells exposed to PMA. Bisindolymaleimide is a Protein Kinase C inhibitor and should block the effect of PMA on U937 cells and their escape velocities. As shown in this and prior experiments, exposure of U937 cells to PMA results in an increase in the escape velocity of the cells. Therefore, it is anticipated that addition of bisindolymaleimide will reduce or eliminate the increase in escape velocity caused by PMA. This has in fact been observed in the data shown below.
Bisindolymaleimide was tested at two concentrations: 200 ng/ml and 50 ng/ml. Samples not treated with bisindolymaleimide received an equivalent amount of the carrier, MeOH, as a control. […] The concentration of PMA tested was 10 ng/ml. Samples not receiving PMA received DMSO.
Once the flasks were prepared, they were incubated at 37° C. 5% CO2 for four hours. At the four hour timepoint, 300 μl of cells were removed from each flask and pelleted at 5000 rpm for 5 minutes. The cells were then resuspended in 6 ml PBS/1% BSA and 60 μl trypan blue.

A further series deals with HL-60 cells. Briefly: Cellular differentiation of HL-60, fast scan time course. Format: cell-based. As to conditions: 1% DMSO. How it is done: (§1) Fast scan analysis was also performed on HL-60 cells that were treated with PMA and DMSO. A time course evaluation of PMA treated HL-60 cells was performed with fast scan data taken at 16 hours, 24 hours, 40 hours, and 72 hours post-treatment with 400 ng/ml PMA. A control sample of HL-60 cells was also tested using EtOH as the vehicle for purposes of comparing the differentiated cells with the undifferentiated HL-60 cells. The PMA-treated and control cells were harvested and trypsinized. The samples were then resuspended in PBS/1% BSA. A set of samples was also obtained and left as pellets at 4° C. for subsequent FACS analysis.
A time course evaluation of DMSO treated HL-60 cells was performed with fast scan data taken at 16 hours, 24 hours, 40 hours, and 70 hours post-treatment with 1% DMSO. A control sample of HL-60 cells was also tested for purposes of comparing the differentiated cells with the undifferentiated HL-60 cells. The DMSO-treated and control cells were then harvested and resuspended in PBS/1% BSA. A set of samples was also obtained and left as pellets at 4° C. for subsequent FACS analysis.

The test system of series [2] is CD11b expression in HL-60 cells. Kind of series: FACS CD11b expression profile. It counts as cell-based. The conditions noted are these: 1% DMSO. How it is done: as §1
FIG. 145 illustrates a histogram of the travel distance of the control cells as well as the PMA-treated cells at 16 hours, 24 hours, 40 hours, and 72 hours post-treatment. FIG. 146 illustrates the mean travel distances of the control cells as well as the PMA-treated cells at 16 hours, 24 hours, 40 hours, and 72 hours post-treatment. FIG. 147 illustrates the FACS CD11b expression profile in PMA-treated HL-60 cells as well as the control. CD11b is a known marker of cellular differentiation and is expressed on the surface of differentiating cells. […] The data illustrate that Optophoretic analysis can be used as an assay for the detection and quantification of cellular differentiation. […]

In the next series the test system is EM-3 cells. Briefly: Experiments 9 and 9.1: Gleevec and other kinase inhibitors, fast scan. Format: cell-based. The conditions noted are these: for Mean Distance: 1 μM, 48 hours of exposure. How it is done:
A second group of cells were treated with 1 μM Src-Family Protein Tyrosine Kinase Inhibitor Set, obtained from CALBIOCHEM (Cat. No. 567816). The Src Set contained four inhibitors, namely, Genistein, Herbimycin A, Streptomyces sp., PP2, and PP3. A third group of cells were treated with 1 μM Staurosporine. A fourth group of cells were treated with 1 μM TK Inhibitor Set, also obtained from CALBIOCHEM (Cat. No. 657021). The TK Inhibitor Set contained five inhibitors, Genistein, PP2, AG490, AG1296, and AG1478. […] Measurements were taken after 48 hours of exposure.
Fast scan analysis was performed after 48 hours of incubation.

The subject of series [3] is K562, BV-173, EM-3, and U-937 cells. Kind of series: Experiment 8: effect of Gleevec, escape velocity. It counts as cell-based. As to conditions: 72 hours after exposure, all four cell types. The text has this: The U-937 cells have no copies of the gene. The K-562 line of cells has, on average, one copy of the gene per cell. The BV-173line of cells has, on average, three copies of the gene per cell. The EM-3 cell line has, on average, five copies of the gene per cell. […] FIG. 44 illustrates the measured escape velocities (average) for each of the four cell types. […] In addition, the decrease in escape velocity for the Gleevec-treated cells was more pronounced in those cell lines that had higher copy numbers of the Bcr-Abl gene.

Another series deals with Jurkat cells. Kind of series: Experiment 5: TNF-α effect, escape velocity. It counts as cell-based. As to conditions: TNF inhibitor added with TNF (FIG. 36). How it is done:
After 48 hours of incubation, the cells were removed and centrifuged for 5 minutes at 5,000 rpm. Then the cells were resuspended in PBS/1% BSA and trypan blue. A higher power setting, 140 mW instead of 100 mW, was used for this experiment. The escape velocities were measured as follows:
In this experiment Leflunomide and Silymarin were added with TNF to see if the anticipated increase in escape velocity measurements could be counteracted by the presence of the TNF inhibitors.

The subject of series [4] is U937 cells. As to the method: This experiment is designed to compare the effects of two concentrations of sodium salicylate on U937 cells. Sodium salicylate was prepared at two concentrations: 20 mM and 5 mM. The escape velocities of the cells was tested at 5 hours, 24 hours and 47 hours. At each timepoint, 30 μl of sample was pelleted at 5,000 rpm for 5 minutes and then resuspended in PBS/1% BSA and trypan blue.

The test system of series [5] is Chang liver cells. Kind of series: Experiment 10: toxicity of ketoconazole, escape velocity. Format: cell-based, human. The conditions noted are these: 1 μm ketoconazole, 1.5 hours of treatment. How it is done:
(§2) This experiment is designed to test the effect of ketoconazole on human liver cells. Ketoconazole induces toxicity in liver cells. The sample cells were Chang liver cells. The concentration of ketoconazole used to treat the cells was 1 μm. Escape velocity and fast scan protocols were applied to determine the impact, if any, of ketoconazole treatment. […] Consequently, Optophoresis was able to detect an effect on the escape velocity of treated cells within 1.5 hours of exposure to ketoconazole. FIGS. 44-45 show the fast scan results of ketoconazole-treated Chang liver cells. […] The ketoconazole-treated cells generally traveled a smaller distance as compared to the non-treated control.

Series [6] has as its system Chang liver cells. It counts as cell-based. The conditions noted are these: human, 1 μm. As to the method:
as §2

For series [7], the system named is U937 cells. This is another data set of the same source.
Protocol: Both groups of cells were incubated with compound in 0.1% DMSO (or simply 0.1% DMSO in the case of the control) for four hours. At the end of the incubation period, the cells were centrifuged down for 3-5 minutes at 5000 rpm in a Model V microcentrifuge (VWR scientific). The supernatant was then aspirated and the pellet resuspended in 1 ml PBS/1% BSA buffer plus 1:10 trypan blue. Escape velocity measurements were then taken of the cells.
The different groups of cells were incubated for various time periods (3, 6, 9, and 24 hours) and escape velocity measurements were made. At the end of the incubation period, the cells were centrifuged down for five minutes at 5000 rpm. The supernatant was then removed and the pellet resuspended in 1 ml PBS/1% BSA buffer plus 1:10 trypan blue. The cells were then loaded onto a cover slip containing agarose that was spin-coated onto the surface thereof.
The cells were incubated for four hours and prepped for testing in accordance with the procedures described above in the prior experiments. The cells were then loaded onto a cover slip containing agarose that was spin-coated onto the surface thereof. Escape velocity measurements were then taken using a 100 mW laser with a diameter of 21.5 pixels.
The groups of cells were incubated (or simply 0.1% DMSO in the case of the control) for six hours. At the end of the incubation period, the cells were centrifuged down for five minutes at 5000 rpm. The supernatant was then removed and the pellet resuspended in 1 ml PBS/1% BSA buffer plus 1:10 trypan blue. The cells were then loaded onto a cover slip containing agarose that was spin-coated onto the surface thereof. Escape velocity measurements were then taken using a 100 mW laser with a diameter of 28 pixels. Escape velocity measurements were then taken of the cells.
The groups of cells were incubated for six hours with compound (or simply DMSO in the case of the control). At the end of the incubation period, the cells were centrifuged down for five minutes at 5000 rpm. […]
The test system of a further series is CEM/C2 cell line. The conditions noted are these: cell lines obtained from ATCC; cited from earlier work.
The test system of a further series is CCRF-CEM cells. Kind of series: Experiment 14, fifth experiment: topotecan on sensitive cell line, escape velocity. It counts as cell-based. As to conditions: 10 μM topotecan, 6 hours. How it is done: In a fifth experiment, two different cell lines obtained from ATCC which have varying degrees of sensitivity to topoisomerase I inhibitors such as camptothecin and topotecan were subject to Optophoretic analysis. A group of cells from a parental cell line CCRF-CEM that is sensitive to camptothecin and topotecan were incubated for 6 hours with 10 μM topotecan. Another group of cells from the cell line CEM/C2, which are 970-fold less sensitive to camptothecin and topotecan, were also incubated for 6 hours with 10 μM topotecan. Control cells from both the CCRF-CEM and CEM/C2 cell lines were also tested. The cells were incubated for six hours and prepared for testing in accordance with the procedures described above in the prior experiments. The cells were then loaded onto a cover slip containing agarose that was spin-coated onto the surface thereof. Escape velocity measurements were then taken using a 100 mW laser with a diameter of 28 pixels. […] Optophoretic analysis was thus able to score cross-resistance of camptothecin-resistant cell lines to topotecan, an analog of camptothecin.

Each structure is given as a SMILES string. Structures can show the parent of a compound that is named as a salt. Where two headings read alike, the source gives them in different places.

As to `CN(C)CCCn1cc(C2=C(c3c[nH]c4ccccc34)C(=O)NC2=O)c2ccccc21` [Bisindolymalemide], the average escape velocity in the series on U937 cells [1] (50 ng/ml bisindolymaleimide + 10 ng/ml PMA) is reported as 15.1 μm/sec; in the series on U937 cells [1] (200 ng/ml bisindolymaleimide + 10 ng/ml PMA) it was 14.5 μm/sec. Also, the figures for the “escape velocity, Ave.” value in the series with U937 cells [1] (50 ng/ml bisindolymaleimide) and with U937 cells [1] (200 ng/ml bisindolymaleimide) were 13.9 and 14.0, respectively. Also, in the series on U937 cells [1] (200 ng/ml BIMI for 30 minutes followed by 10 ng/ml PMA (FIG. 33)), the “effect on the optophoretic shift in escape velocity caused by PMA” value was “blocked the optophoretic shift in escape velocity”.

Take `C[S+](C)[O-]` [DMSO, dimethylsulfoxide]: the “course of mean travel distance” value with HL-60 cells (16 to 72 hours (FIG. 149)) is “mean travel distance progressively decreased as time elapsed”. Moreover, the “time after treatment at which a noticeable decrease in mean travel distance was detected” value in the series on HL-60 cells (fast scan) was no more than 16 h. In series [2], the “time after treatment at which FACS detected a change in CD11b expression levels” value was 40 h.

As for `Cc1ccc(NC(=O)c2ccc(CN3CCN(C)CC3)cc2)cc1Nc1nccc(-c2cccnc2)n1` [Gleevec, imatinib mesylate], in the series on EM-3 cells, the “Mean Distance” value turned out to be 13.199 μm. Further, the “response of mean travel distance to varying concentration” value with EM-3 cells (0.06 to 4 μM Gleevec, 48 hours) is given as “dose-dependent response”. The “escape velocity as compared to non-treated cells” value in [3] is “significantly lower escape velocity”.

For `Cc1oncc1C(=O)Nc1ccc(C(F)(F)F)cc1` [Leflunomide], in the series with Jurkat cells, the “effect on the increase in escape velocity caused by TNF” value is recorded as “mitigate the increase in escape velocity caused by TNF”.

On to `O=C([O-])c1ccccc1O.[Na+]` [Sodium Salicylate, sodium salicylate], for which, in the series on U937 cells [4] (5 mM and 20 mM salicylic acid, 5 and 24 hours (FIG. 37)), the “shift in escape velocities” value is recorded as “slight but statistically significant shift in escape velocities”. The “escape velocity, Ave.” value is recorded as 14.1 in the series on U937 cells [4] (5 mM sodium salicylate, 5 hours); 15.2 in the series on U937 cells [4] (5 mM sodium salicylate, 24 hours); 13.7 with U937 cells [4] (5 mM sodium salicylate, 47 hours); 13.3 in the series on U937 cells [4] (20 mM sodium salicylate, 5 hours); 16.0 in the series on U937 cells [4] (20 mM sodium salicylate, 24 hours). Further, the “cell viability (trypan blue)” value in the series on U937 cells [4] (20 mM, 47 hours) is reported as “all cells were dead”.

Regarding `CN[C@@H]1C[C@H]2O[C@@](C)([C@@H]1OC)n1c3ccccc3c3c4c(c5c6ccccc6n2c5c31)C(=O)NC4` [Staurosporine], the “Mean Distance” value in the series on EM-3 cells amounted to 9.250 μm.

Take `CC(=O)N1CCN(c2ccc(OCC3COC(Cn4ccnc4)(c4ccc(Cl)cc4Cl)O3)cc2)CC1` (stereo not drawn) [ketoconazole]: in the series with Chang liver cells [5], the “escape velocity versus control” value is “marked decrease in escape velocity”. The molecule also showed a mean travel distance in the series on Chang liver cells [6] of 20.97 μm.

With `CC[C@@]1(O)C(=O)OCc2c1cc1n(c2=O)Cc2cc3c(CN(C)C)c(O)ccc3nc2-1` [topotecan], the “shift in escape velocity” value in the series on U937 cells [7] (4 μg/ml, four hours (FIG. 54)) was “larger shift in escape velocity as compared to the camptothecin-treated cells”. In addition, in the series on U937 cells [7] (human, 24 h, 10 μM), the cell death entry was “virtually all of the treated U937 cells were dead”. Besides, the “potency by escape velocity concentration curves” value with U937 cells [7] (six hours, FIG. 65 versus FIG. 70) was “higher potency of topotecan as compared to camptothecin”. In the series on CEM/C2 cell line, the “fold less sensitive than parental CCRF-CEM” value is reported as 970 fold. Also, the “decrease in escape velocity” value in the series on CCRF-CEM cells was “larger decrease in escape velocity as compared to the CEM/C2 cells”.
